From US8435519B2, “Antibodies that bind alpha subunit of sodium potassium ATPase” (priority 2005, dated 2013)

Legend:
D-R region of NKA = target: T1, D-R region of NKA (Rattus norvegicus, UniProt P06685); experiment: Immunofluorescent staining of rat cardiac myocytes; assay type: binding; conditions: ouabain 5, 10 and 20 mM
T1 construct: endogenous in cells; host or cells: isolated rat cardiac myocytes, frozen sections
Procedure: With both ouabain and SSA412: FIG. 5E: a group of cells with 5 mM ouabain at a magnification of 400×, FIG. 5F: a single cell with 5 mM ouabain at 1200×, FIG. 5G: cells with 10 mM ouabain, FIG. 5H: cells with 20 mM ouabain.
Isolated rat heart cells were incubated in 1 ml cold lysis buffer containing 150 mM NaCl, 10 mM EDTA, 1% NP-40, 1 mM Na3VO4, and 1× protease inhibitor cocktail as described, with or without antibody. Immunoprecipitates were boiled for 5 min and loaded on a 7% SDS gel, and transferred from the SDS gel to a nitrocellulose membrane. The nitrocellulose membrane was blocked with 5% nonfat milk for 1 hour and incubated with SSA412 or other control antibodies overnight at 4° C. Alkaline phosphatase conjugated secondary antibody (1:2500) was then incubated with the membrane for 1 hour and washed 3 times with TBS in 0.05% Tween-20. Color was developed using a reagent containing a mixture of NBT and BCIP (Promega Corporation, WI). For immunofluorescent staining, rat myocytes were frozen and cut on a cryostat. Sections (8 μm) of each tissue were blocked with 1% bovine serum albumin (BSA) and incubated with SSA412 (1:100) for 60 min in the presence or absence of 5, 10, and 20 mM ouabain. Washed slides were evaluated after incubation with a FITC conjugated goat anti-rabbit antibody (1:75).

[1] = system: α- and β-adrenergic receptors in isolated rat myocytes; experiment: Effect of α- and β-adrenergic receptor inhibitors on cell contraction; assay type: cell-based; conditions: 1 μM isoproterenol, inhibitors 7 μM each
Procedure: Cell contractions were measured in the presence or absence of SSA412 (0.5 μM) with or without inhibitors. Black circles: with 1 μM isoproterenol. Open circles: with 1 μM isoproterenol+ both prazosin and propennol (7 μM each). Black triangles: with SSA412 in the presence of both prazosin and propennol (7 μM each). Data are presented as percent of control (n=8 cells for each group).
(§1) Myocytes were placed on an inverted microscope (Zeiss model IM-35), superfused with HEPES-buffered solution at a flow rate of 1.8 ml/min, and electrically stimulated at 0.5 Hz at 23° C. Cell length was monitored from the bright-field image (650 nm to 750 nm red light illumination) by an optical edge-tracking method using a photodiode array (model 1024 SAQ, Reticon) with a 3-ms time resolution. Contraction amplitude was measured as the percentage of shortening of cell length.

[2] = system: isolated rat cardiac myocytes; experiment: Intracellular Ca2+ transients and cell contraction; assay type: cell-based; conditions: SSA412 + 0.5 mM peptide blocker
Procedure: Ventricular cardiac myocytes were isolated from adult Sprague-Dawley rats (2-3 months old, weight 225-300 g) using standard enzymatic technique as described previously.^1 Briefly, following anaesthesia (sodium pentobarbital, 100 mg/kg), the heart was quickly removed from the chest and aortic perfused at constant pressure at 37° C. for 3 min with a Ca^2+-free bicarbonate-based buffer containing 120 mM NaCL, 5.4 mM MgSO4, 1.2 mM NaH2PO4, 5.6 mM glucose, 20 mM NaHCO3, and 5 mM taurine, in the presence of O2 (95%)/CO2 (5%). Enzymatic digestion was initiated by adding collagenase (Worthington Type II, 1 mg/ml) to the perfusion solution. Calcium (50 μM) was added to the enzyme solution when the heart became swollen. About 7 min later, the left ventricle was quickly removed, cut into several pieces, and further digested on a shaker (60-70 rpm) for 10 min in the same enzyme solution. […]
as §1, with “length. […]” for “length.”

[3] = target: T2, purified ouabain-sensitive dog NKA (Canis lupus familiaris, UniProt P50997); experiment: NKA catalytic activity (ATPase assay, Kyte's method), purified dog NKA; assay type: biochemical; conditions: FIG. 7, antibody + peptide blocker
T2 construct: 30 μg of purified dog kidney NKA; from tissue; host or cells: dog kidney
Procedure: A first series of experiments were conducted testing whether antibody SSA412, binding to the D-R region of the alpha 1-subunit, affects NKA activity. NKA activity was determined based on Jack Kyte's method as previously described [17, which is hereby incorporated by reference as if set forth fully herein]. […] FIG. 2A and FIG. 2B show the time course of activation of purified rat (FIG. 2A: 0.125 mg/ml, ouabain-resistant) or dog (FIG. 2B: 0.125 mg/ml, ouabain-sensitive) NKA incubated with SSA412 (0.5 and 1.0 μM) or with 1.0 μM normal rabbit total IgG at 4° C. or at room temperature (FIG. 2C and FIG. 2D). The control is indicated by closed circles, […] SSA412 by open circles, […] SSA412 by closed triangles and […] rabbit IgG by open triangles.
NKA activity was determined based on Jack Kyte's method as previously described under various experimental conditions as indicated in FIG. 2. All NKA activities in different experiments are ouabain-sensitive activity. Purified ouabain-resistant rat NKA and ouabain-sensitive dog NKA were used to verify the data. Enzymes were incubated with or without SSA412 for 60 min at room temperature. The reaction was initiated by adding different concentrations of MgATP in a final volume of 0.25 ml at 37° C. for 30 min and terminated by adding 0.75 ml quench solution and 0.025 ml developer. Color was developed for 30 minutes at room temperature and the concentration of phosphate was then determined at 700 nm using a spectrophotometer. NKA turnover number (kcat) was calculated using the equation kcat=Vmax/Et, where Vmax is the maximal velocity (rate of reaction) and Et represents enzyme concentration.

For `C[C@@H]1O[C@@H](O[C@H]2C[C@@H](O)[C@]3(CO)[C@H]4[C@H](O)C[C@]5(C)[C@@H](C6=CC(=O)OC6)CC[C@]5(O)[C@@H]4CC[C@]3(O)C2)[C@H](O)[C@H](O)[C@H]1O` [Ouabain, ouabain], which “competition with SSA412 binding to the D-R region of NKA” value (D-R region of NKA) is on record?
Its value is “does not compete”.

How did the “effect of inhibitor on action of the agonist isoproterenol” value [1] turn out when `COc1cc2nc(N3CCN(C(=O)c4ccco4)CC3)nc(N)c2cc1OC` [prazosin] was run?
The value was “eliminated”.

`CC(C)NCC(O)COc1cccc2ccccc12` (stereo not shown) [propennol] was tested. Which “effect of inhibitor on action of the agonist isoproterenol” value [1] did it give?
The value was “eliminated”.

For “DVEDSYGQQWTYEQR (Activation site of the (Na+K)-ATPase)”, which “SSA412-induced increase in calcium and contraction in presence of peptide blocker” value [2] is on record?
The value was “blocked”.

“KRQPRNPKTDKLVNE (Activation site of the (Na+K)-ATPase) [PB95]” was tested. Which “antibody-induced increase in NKA in presence of respective peptide blocker” value (shortened to “antibody-induced increase in NKA”) [3] did it give?
The value was “blocked”.

For “RSATEEEPPNDD (Activation site of the (Na+K)-ATPase) [PB78]”, which “antibody-induced increase in NKA” value [3] is on record?
Its value is “blocked”.

With “VPAISLAYEQAESD (VPASLAYEQAESD; Activation site of the (Na+K)-ATPase) [PB97]” as the molecule, how does the “antibody-induced increase in NKA” value [3] read?
The value was “blocked”.
